Experimental data: the Deep4Chem optical property database
Several values for one entry are separate records, joined by “and”; a condition that tells them apart may be missing. Equal values may be shown once. Values belong to the compound of their own block, whether it stands above or below them.

Assay: solvent given as SMILES

Compound: CC1(C)c2ccccc2N(c2ccc(-c3ccc(C#N)c(C#N)n3)cc2)c2ccccc21
emission maximum (in Cc1ccccc1): 562 nm
emission maximum (in N#Cc1ccc2c(c1)c1ccccc1n2-c1cccc(-n2c3ccccc3c3ccccc32)c1): 550 nm

Compound: O=c1c2cc(F)c(N3CCOCC3)cc2sc2cc(N3CCOCC3)c(F)cc12
emission maximum (in CCO): 481 nm

Compound: CC1(C)c2ccccc2N(c2cccc(S(=O)(=O)c3cccc(N4c5ccccc5C(C)(C)c5ccccc54)c3)c2)c2ccccc21
emission maximum (in C1CCOC1): 422 nm
emission maximum (in CCCCC(CC)n1c2ccc(-n3c4ccccc4c4ccccc43)cc2c2cc(-n3c4ccccc4c4ccccc43)ccc21): 509.28 nm
emission maximum (in Cc1ccccc1): 489 nm
emission maximum (in ClC(Cl)Cl): 515 nm
emission maximum (in c1cc(-n2c3ccccc3c3ccccc32)cc(-n2c3ccccc3c3ccccc32)c1): 505.12 nm

Compound: N#Cc1cc(-n2c3ccccc3c3ccccc32)c(-n2c3ccccc3c3ccccc32)cc1-c1cc(-n2c3ccccc3c3ccccc32)c(-n2c3ccccc3c3ccccc32)cc1C#N
emission maximum (in Cc1ccccc1): 458 nm

Compound: COC(=O)c1cc(=O)n(C)c2cc(-c3cc(OC)c(OC)c(OC)c3)sc12
emission maximum (in CC#N): 495 nm
emission maximum (in ClCCl): 485 nm

Compound: CC[N+]1(CC)CN2C(=N1)C(C(=O)O)=Cc1ccccc12
emission maximum (in CN(C)C=O): 463 nm
emission maximum (in O): 462 nm

Compound: C#CCOc1ccc(/C=C/C2=[N+]3C(=C(c4ccc(N(CC)CC)cc4)c4c(C)cc(/C=C/c5ccc(OCC(=O)OC)cc5)n4[B-]3(F)F)C(C)=C2)cc1
emission maximum (in CO): 655 nm

Compound: CC1(C)c2ccccc2N(c2ccc3c(c2)C2(c4cc(N5c6ccccc6C(C)(C)c6ccccc65)ccc4-3)c3ccccc3S(=O)(=O)c3ccccc32)c2ccccc21
emission maximum (in Cc1ccccc1): 437 nm

Compound: CC(C)c1cccc(C(C)C)c1-n1c(=O)c2cc3nc(-c4ccccc4)c4cc5c(=O)n(-c6c(C(C)C)cccc6C(C)C)c(=O)c6cc7nc(-c8ccccc8)c8cc(c1=O)c2c1c3c4c(c65)c7c81
emission maximum (in ClC(Cl)Cl): 502 nm

Compound: Nc1ccccc1C(=O)O
emission maximum (in C1CCCCC1): 387 nm
emission maximum (in C1COCCO1): 395 nm
emission maximum (in CC#N): 397 nm
emission maximum (in CC(C)=O): 394 nm
emission maximum (in CCO): 407 nm
emission maximum (in CO): 406 nm
emission maximum (in CS(C)=O): 400 nm
emission maximum (in O): 400 nm and 397 nm
emission maximum (in OCC(F)(F)F): 423 nm
emission maximum (in c1ccccc1): 394 nm

Compound: C(=C(c1ccccc1)c1ccccc1)c1ccc(-c2cc(-c3ccc(C=C(c4ccccc4)c4ccccc4)cc3)cc(-c3ccc(C=C(c4ccccc4)c4ccccc4)cc3)c2)cc1
emission maximum (in C1CCOC1): 446 nm

Compound: F[B-]1(F)Oc2ccccc2-c2nc(-c3ccccc3)c3ccccc3[n+]21
emission maximum (in Cc1ccccc1): 529 nm

Compound: O=C1c2cccc3c(C#CC#Cc4ccc5c6c(cccc46)C(=O)N(c4ccccc4)C5=O)ccc(c23)C(=O)N1c1ccccc1
emission maximum (in ClCCl): 440 nm

Compound: CCCCCCCCn1c(=O)c2cc3c(C#Cc4ccc(N(c5ccccc5)c5ccccc5)cc4)c4cc5c(=O)n(CCCCCCCC)c(=O)c5cc4c(C#Cc4ccc(N(c5ccccc5)c5ccccc5)cc4)c3cc2c1=O
emission maximum (in ClC(Cl)Cl): 641 nm

Compound: CC(C)(C)c1ccc2c(c1)c1cc(C(C)(C)C)ccc1n2-c1ccc(-c2ccc3c(c2)C(=O)c2ccc(-c4ccc(-n5c6ccc(C(C)(C)C)cc6c6cc(C(C)(C)C)ccc65)cc4)cc2C3=O)cc1
emission maximum (in Cc1ccccc1): 558 nm
emission maximum (in c1ccc2c(c1)c1ccccc1n2-c1ccc(-c2ccc(-n3c4ccccc4c4ccccc43)cc2)cc1): 550 nm

Compound: COC(=O)c1ccc(-c2ccc3c(c2)C(=O)c2cc(-c4ccc(C(=O)OC)cc4)ccc2-3)cc1
emission maximum (in C1CCOC1): 366 nm

Compound: Cc1c(C)n2c(COC(=O)CNC(=O)OC(C)(C)C)c(C)c(=O)n2c1=O
emission maximum (in CCO): 459 nm

Compound: CCCCCCN1C(=O)c2cccc3c(-c4ccc(-c5ccc(-c6ccc7c8c(cccc68)C(=O)N(CCCCCC)C7=O)s5)s4)ccc(c23)C1=O
emission maximum (in ClC(Cl)Cl): 542 nm

Compound: COc1cc(OC)cc(C2=C3C(C)=C(I)C(/C=C/c4ccsc4)=[N+]3[B-](F)(F)n3c(/C=C/c4ccsc4)c(I)c(C)c32)c1
emission maximum (in C1CCOC1): 680 nm
emission maximum (in CS(C)=O): 692 nm
emission maximum (in ClCCl): 682 nm

Compound: CC1(C)c2ccccc2-c2cc3c(cc21)N(c1ccc(-c2nc(-c4ccc(N5c6ccccc6C(c6ccccc6)(c6ccccc6)c6cc7c(cc65)C(C)(C)c5ccccc5-7)cc4)nc(-c4ccc(N5c6ccccc6C(c6ccccc6)(c6ccccc6)c6cc7c(cc65)C(C)(C)c5ccccc5-7)cc4)n2)cc1)c1ccccc1C3(c1ccccc1)c1ccccc1
emission maximum (in Cc1ccccc1): 515 nm

Compound: CCC1=C(C)C2=Cc3cc(I)c(I)n3[B-](F)(F)[N+]2=C1C
emission maximum (in C1CCCCC1): 550.5 nm
emission maximum (in CC(C)=O): 552.5 nm
emission maximum (in CCO): 555 nm
emission maximum (in CCOC(C)=O): 551.5 nm
emission maximum (in CO): 552 nm
emission maximum (in OCC(F)(F)F): 548 nm

Compound: CC(C)c1cc(C(C)C)c(-c2nnc(-c3ccc(-n4c5ccccc5c5ccccc54)cc3)o2)c(C(C)C)c1
emission maximum (in CCO): 435 nm
emission maximum (in Cc1ccccc1): 377 nm

Compound: Cc1ccc2c(c1)C(c1ccccc1)(c1ccccc1)c1cc(C)ccc1N2c1ccc2c(c1)N(c1ccccc1)c1ccccc1B2c1c(C(C)C)cc(C(C)C)cc1C(C)C
emission maximum (in Cc1ccccc1): 449 nm
emission maximum (in O=P(c1ccccc1)(c1ccccc1)c1ccc2oc3ccc(P(=O)(c4ccccc4)c4ccccc4)cc3c2c1): 465 nm

Compound: O=C1CCCc2c1[nH]c1cc3c(cc21)OCO3
emission maximum (in C1CCOC1): 403.84 nm
emission maximum (in CC#N): 399.42 nm
emission maximum (in CCCCCCO): 430.73 nm
emission maximum (in CCO): 437.63 nm
emission maximum (in CCOC(C)=O): 388.9 nm
emission maximum (in CS(C)=O): 403.54 nm
emission maximum (in O): 463.6 nm
emission maximum (in c1ccccc1): 384.12 nm

Compound: Cc1cc(C)c(N(c2ccccc2)c2ccc(S(=O)(=O)c3ccc(S(=O)(=O)c4ccc(N(c5ccccc5)c5c(C)cc(C)cc5C)cc4)cc3)cc2)c(C)c1
emission maximum (in Cc1ccccc1): 450 nm
emission maximum (in c1cc(-n2c3ccccc3c3ccccc32)nc(-n2c3ccccc3c3ccccc32)c1): 452.12 nm

Compound: Cc1ccc(C(=O)OCc2c(C)c(=O)n3c(=O)c(C)c(C)n23)cc1
emission maximum (in CCO): 460 nm

The next lines start with the values.

emission maximum (in CCO): 661 nm
emission maximum (in CO): 655 nm
emission maximum (in CS(C)=O): 663 nm
emission maximum (in O): 659 nm
Compound: CN1/C(=C/C=C(/C=C/C2=[N+](C)c3ccccc3C2(C)C)c2cc(F)cc(F)c2)C(C)(C)c2ccccc21

emission maximum (in CS(C)=O): 497 nm
Compound: Brc1ccc(N/C=C/C=[NH+]c2ccc(Br)cc2)cc1

emission maximum (in C1CCCCC1): 380 nm
emission maximum (in C1CCOC1): 428 nm
emission maximum (in CC#N): 480 nm
emission maximum (in CCOC(C)=O): 428 nm
emission maximum (in ClCCCl): 450 nm
emission maximum (in c1ccccc1): 412 nm
Compound: CCCCCCCCCCCCCCCCOC(=O)c1ccc(N(c2ccccc2)c2ccccc2)cc1

emission maximum (in C1CCCCC1): 413.38 nm
emission maximum (in C1CCOC1): 411.8 nm
emission maximum (in CC#N): 408.05 nm
emission maximum (in CCCCCC): 411.8 nm
emission maximum (in CCO): 408.84 nm
emission maximum (in CN(C)C=O): 409.82 nm
emission maximum (in CO): 408.05 nm
emission maximum (in ClC(Cl)Cl): 410.54 nm
emission maximum (in ClCCl): 409.82 nm
Compound: Fc1ccc(-c2cc3ccc4cc(-c5ccc(F)cc5)cc5ccc(c2)c3c45)cc1

emission maximum (in CCO): 526 nm
Compound: CCOC(=O)c1cc(C(=O)OCC)c2cccc(OC)c2n1

emission maximum (in C1CCCCC1): 596 nm
Compound: CCc1c(C)c2n(c1C)[B-](F)(F)[N+]1=C(C=C3C=Cc4ccccc43)C=CC1=C2C

emission maximum (in C1COCCO1): 537 nm
emission maximum (in CC#N): 541 nm
emission maximum (in CCO): 545 nm
emission maximum (in CCOC(C)=O): 535 nm
emission maximum (in O): 542 nm
Compound: CN1C(=O)/C(=C/c2ccncc2)N=C1/C=C/c1ccncc1

emission maximum (in CCO): 567 nm
emission maximum (in O): 574 nm
Compound: CN(C)c1ccc2c(-c3cc(N)ccc3C(=O)[O-])c3ccc(=[N+](C)C)cc-3oc2c1

emission maximum (in CCO): 503 nm
emission maximum (in ClCCl): 500 nm
Compound: N#Cc1cnc(-c2c3ccccc3c(-c3ncc(C#N)cn3)c3ccccc23)nc1

emission maximum (in C1CCOC1): 424 nm
emission maximum (in CCCCCC): 414 nm
emission maximum (in CCO): 429 nm
emission maximum (in CS(C)=O): 431 nm
Compound: COc1ccc2cc(-c3ccc(C)cc3)c(=O)oc2c1

emission maximum (in C1CCOC1): 410 nm
Compound: COc1ccc(/C=C/C(F)(F)F)c(N)c1

emission maximum (in CO): 617 nm
Compound: C(C1=[NH+]c2cccc3cccc1c23)=c1[nH]c2cccc3cccc1c32

emission maximum (in CC#N): 460 nm
emission maximum (in CO): 455 nm
emission maximum (in O): 475 nm
Compound: CSc1ccc2c(c1)N(CCCN(C)C)c1ccccc1S2

emission maximum (in ClCCl): 401 nm
Compound: COC(=O)c1c(-c2cc3ccccc3oc2=O)nn(-c2cccc(C)c2)c1C(=O)OC

emission maximum (in CCCCCC): 656 nm
Compound: CC(C)[Si](C#Cc1c2nc3ccccc3nc2c(C#C[Si](C(C)C)(C(C)C)C(C)C)c2nc3c(ccc4ccccc43)nc12)(C(C)C)C(C)C

emission maximum (in C1CCCCC1): 322 nm
emission maximum (in CC#N): 323 nm
Compound: C=Cc1ccc(OC)cc1

emission maximum (in C1CCCCC1): 453 nm
emission maximum (in CC#N): 465 nm
emission maximum (in CCO): 471 nm
emission maximum (in ClCCl): 466 nm
Compound: O=P1(c2ccccc2)C2=C(c3ccccc31)S(=O)(=O)c1ccccc12 (stereo not drawn)

emission maximum (in CN(C)C=O): 716 nm
Compound: CCN(CC)c1ccc(/C=C2\CC/C(=C\c3ccc(N(c4ccccc4)c4ccccc4)cc3)C2=C(C#N)C#N)cc1

emission maximum (in CS(C)=O): 586 nm
Compound: CCCCN1/C(=C/C=C/C2=[N+](C)c3ccccc3C2(C)C)C(C)(C)c2c1ccc1ccccc21

emission maximum (in C1CCCCC1): 373 nm
Compound: CB1C=Cc2ccc3ccccc3c2N1

emission maximum (in CCO): 541 nm
Compound: CCOC(=O)c1cc(C(=O)OCC)c2ccc(N(C)C)cc2n1

emission maximum (in ClC(Cl)Cl): 643 nm
Compound: F[B-]1(F)n2c(ccc2-c2cccs2)C(c2ccc(Br)cc2)=C2C=CC(c3cccs3)=[N+]21

emission maximum (in C1CCCCC1): 287.36 nm
Compound: c1ccccc1

emission maximum (in CC#N): 440 nm and 417 nm
Compound: Cn1c(-c2ccc(-c3nc(-c4ccccc4)c(-c4ccccc4)n3C)cc2)nc(-c2ccccc2)c1-c1ccccc1

emission maximum (in ClCCl): 473 nm
Compound: COC(=O)c1[nH]c(-c2ccccc2)c2nnc3c4ccccc4oc3c12

emission maximum (in C1CCOC1): 409 nm
emission maximum (in CC#N): 407 nm
emission maximum (in CCOC(C)=O): 410 nm
emission maximum (in CS(C)=O): 406 nm
emission maximum (in ClC(Cl)Cl): 411 nm
Compound: N#Cc1cc2ccccc2oc1=N

emission maximum (in ClCCl): 575 nm
Compound: CC(C)(C)OC(=O)/C=C/C1=CC2=C(c3ccccc3)c3cccn3[B-](F)(F)[N+]2=C1

emission maximum (in C1CCOC1): 468 nm
Compound: N#Cc1c(N2CCCCC2)cc(-c2ccc(Br)cc2)c2c1CCc1ccccc1-2
